Results taken from patent US9328099B2, “Cyanomethylpyrazole carboxamides as janus kinase inhibitors” (Merck Sharp & Dohme Corp., priority 2011, dated 2016).

Tests used:
JAK1 = JAK1 (Homo sapiens (Human), UniProt P23458); test: Jak Biochemical HTRF Assay, JAK1; conditions: HTRF biochemical assay, GST-tagged catalytic domain; top concentration tested […]; read-out: JAK1 IC50
From the text: (§1) Jak Biochemical HTRF Assay Protocol
(§2) Subsequent reagent additions employed an Agilent Bravo.

JAK2 = JAK2 (Homo sapiens (Human), UniProt O60674); test: Jak Biochemical HTRF Assay, JAK2; conditions: HTRF biochemical assay, GST-tagged catalytic domain; top concentration tested […]
Sequence of JAK2 (O60674 849-1124): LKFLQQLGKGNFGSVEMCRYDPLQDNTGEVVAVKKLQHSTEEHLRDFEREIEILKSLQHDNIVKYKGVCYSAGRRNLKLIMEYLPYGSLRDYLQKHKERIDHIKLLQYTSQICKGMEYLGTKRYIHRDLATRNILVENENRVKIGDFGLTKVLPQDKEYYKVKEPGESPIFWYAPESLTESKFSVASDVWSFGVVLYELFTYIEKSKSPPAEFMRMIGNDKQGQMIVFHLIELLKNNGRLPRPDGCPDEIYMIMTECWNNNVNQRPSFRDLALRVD
From the text: as §1, §2

Sequence of JAK1 (P23458 875-1153): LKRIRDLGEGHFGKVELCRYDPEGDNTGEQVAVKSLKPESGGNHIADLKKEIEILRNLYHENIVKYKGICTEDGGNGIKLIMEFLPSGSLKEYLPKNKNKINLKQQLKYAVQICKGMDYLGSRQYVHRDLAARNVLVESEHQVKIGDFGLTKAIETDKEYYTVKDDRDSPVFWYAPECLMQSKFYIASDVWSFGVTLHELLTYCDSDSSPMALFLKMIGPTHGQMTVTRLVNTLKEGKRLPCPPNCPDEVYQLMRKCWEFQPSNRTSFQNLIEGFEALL

`N#CCC1(n2cc(C(N)=O)c(Nc3ccnc(F)c3)n2)CCN(C(=O)CC(F)(F)F)CC1` [Example 35-2, 1-(4-(cyanomethyl)-1-(3,3,3-trifluoropropanoyl)piperidin-4-yl)-3-(2-fluoropyridin-4-ylamino)-1H-pyrazole-4-carboxamide] gave an IC50 (JAK1) of 0.2 nM and an IC50 (JAK2) of 10 nM.
With `Cc1ccc(F)cc1N1CCC(CC#N)(n2cc(C(N)=O)c(Nc3ccc(F)cc3)n2)CC1` [Example 3-32, 1-[4-(cyanomethyl)-1-(5-fluoro-2-methylphenyl)piperidin-4-yl]-3-[(4-fluorophenyl)amino]-1H-pyrazole-4-carboxamide] the IC50 (JAK1) was 204 nM and the IC50 (JAK2) was greater than 1500 nM.
In the case of `COc1ccccc1COC(=O)N1CC(CC#N)(n2cc(C(N)=O)c(Nc3ccccc3)n2)C1` [Example 30-69, 2-methoxybenzyl 3-[4-carbamoyl-3-(phenylamino)-1H-pyrazol-1-yl]-3-(cyanomethyl)azetidine-1-carboxylate], the IC50 (JAK1) is reported as 31 nM and the IC50 (JAK2) is reported as 671 nM.
`CC1(C)CC(CN2CCC(CC#N)(n3cc(C(N)=O)c(Nc4ccnc(F)c4)n3)CC2)CCO1` (stereo not drawn) [Example 22-16, 1-{4-(cyanomethyl)-1-[(2,2-dimethyltetrahydro-2H-pyran-4-yl)methyl]piperidin-4-yl}-3-[(2-fluoropyridin-4-yl)amino]-1H-pyrazole-4-carboxamide] was tested, and the IC50 (JAK1) was 5 nM and the IC50 (JAK2) was 122 nM.
`CS(=O)(=O)c1ccc(Nc2nn([C@]3(CC#N)C[C@@H](C#N)C3)cc2C(N)=O)cc1` [Example 2-22, 1-((1r,3r)-3-cyano-1-(cyanomethyl)cyclobutyl)-3-((4-(methylsulfonyl)phenyl)amino)-1H-pyrazole-4-carboxamide] gave an IC50 (JAK1) of 13 nM and an IC50 (JAK2) of 127 nM.
`N#CCC1(n2cc(C(N)=O)c(Nc3ccc(F)cc3)n2)CCN(c2cccc(C#N)n2)CC1` [Example 3-18, 1-[4-(cyanomethyl)-1-(6-cyanopyridin-2-yl)piperidin-4-yl]-3-[(4-fluorophenyl)amino]-1H-pyrazole-4-carboxamide] gave an IC50 (JAK1) of 3 nM and an IC50 (JAK2) of 89 nM.
`N#CCC1(n2cc(C(N)=O)c(Nc3ccc(S(=O)(=O)C(F)F)cc3)n2)CCC(Nc2ccccc2)CC1` (stereo not drawn) [Example 40-88, Cis or trans 1-[1-(cyanomethyl)-4-(phenylamino)cyclohexyl]-3-({4-[(difluoromethyl)sulfonyl]phenyl}amino)-1H-pyrazole-4-carboxamide] was tested, and the IC50 (JAK1) was 200 nM and the IC50 (JAK2) was greater than 1500 nM.
`Cc1ccc(-c2cccc(Nc3nn(C4(CC#N)CCN(C(=O)OC(C)(C)C)CC4)cc3C(N)=O)c2)cc1` [Example 15-6, tert-butyl 4-{4-carbamoyl-3-[(4′-methylbiphenyl-3-yl)amino]-1H-pyrazol-1-yl}-4-(cyanomethyl)piperidine-1-carboxylate] showed an IC50 (JAK1) of 85 nM and an IC50 (JAK2) of 1480 nM.
Compound `CN1CCN(CCOC(=O)N2CCC(CC#N)(n3cc(C(N)=O)c(Nc4ccccc4)n3)CC2)CC1` [Example 30-43, 2-(4-methylpiperazin-1-yl)ethyl 4-[4-carbamoyl-3-(phenylamino)-1H-pyrazol-1-yl]-4-(cyanomethyl)piperidine-1-carboxylate] has an IC50 (JAK1) of 12 nM and an IC50 (JAK2) of 318 nM.
`COCCOC(=O)N1CCC(CC#N)(n2cc(C(N)=O)c(Nc3ccccc3)n2)CC1` [Example 30-35, 2-methoxyethyl 4-[4-carbamoyl-3-(phenylamino)-1H-pyrazol-1-yl]-4-(cyanomethyl)piperidine-1-carboxylate] gave an IC50 (JAK1) of 4 nM and an IC50 (JAK2) of 71 nM.
`CC(OC(=O)N1CCC(CC#N)(n2cc(C(N)=O)c(Nc3ccc(F)cc3)n2)CC1)C(F)(F)F` (stereo not drawn) [Example 30-3, 1,1,1-trifluoropropan-2-yl 4-(4-carbamoyl-3-(4-fluorophenylamino)-1H-pyrazol-1-yl)-4-(cyanomethyl)piperidine-1-carboxylate] gave an IC50 (JAK1) of 0.8 nM and an IC50 (JAK2) of 28 nM.
`N#CCC1(n2cc(C(N)=O)c(Nc3ccc(F)cc3)n2)CCN(c2ccc(F)cc2)CC1` [Example 3-38, 1-[4-(cyanomethyl)-1-(4-fluorophenyl)piperidin-4-yl]-3-[(4-fluorophenyl)amino]-1H-pyrazole-4-carboxamide] was tested, and the IC50 (JAK1) was 2 nM and the IC50 (JAK2) was 37 nM.
`CC(C)(C)OC(=O)N1CCC(CC#N)(n2cc(C(N)=O)c(Nc3ccnc(CO)c3)n2)CC1` [Example 9-18, tert-butyl 4-(4-carbamoyl-3-{[2-(hydroxymethyl)pyridin-4-yl]amino}-1H-pyrazol-1-yl)-4-(cyanomethyl)piperidine-1-carboxylate] was tested, and the IC50 (JAK1) was 6 nM and the IC50 (JAK2) was 101 nM.
Compound `CC(C)(C)OC(=O)N1CC[C@](CC#N)(n2cc(C(N)=O)c(Nc3ccc(F)cc3)n2)[C@@H](F)C1` (single isomer, unassigned) [Example 47-4, tert-butyl (3S,4R or 3R,4S)-4-{4-carbamoyl-3-[(4-fluorophenyl)amino]-1H-pyrazol-1-yl}-4-(cyanomethyl)-3-fluoropiperidine-1-carboxylate] has an IC50 (JAK1) of 2 nM and an IC50 (JAK2) of 83 nM.
`N#CCC1(n2cc(C(N)=O)c(Nc3ccccc3)n2)CN(C(=O)OCCc2ccccn2)C1` [Example 30-67, 2-pyridin-2-ylethyl 3-[4-carbamoyl-3-(phenylamino)-1H-pyrazol-1-yl]-3-(cyanomethyl)azetidine-1-carboxylate] was tested, and the IC50 (JAK1) was 108 nM and the IC50 (JAK2) was 849 nM.
Compound `CNC(=O)c1cn(C2(CC#N)CCN(C(=O)OC(C)(C)C)CC2)nc1Nc1ccccc1` [Example 1, tert-Butyl 4-(cyanomethyl)-4-[4-(methylcarbamoyl)-3-(phenylamino)-1H-pyrazol-1-yl]piperidine-1-carboxylate] has an IC50 (JAK1) of 67 nM and an IC50 (JAK2) of 1480 nM.
Work on `Cc1ccc(CN2CCC(CC#N)(n3cc(C(N)=O)c(Nc4ccccc4)n3)CC2)cc1` [Example 21-7, 1-[4-(cyanomethyl)-1-(4-methylbenzyl)piperidin-4-yl]-3-(phenylamino)-1H-pyrazole-4-carboxamide] yielded an IC50 (JAK1) of 11 nM and an IC50 (JAK2) of 135 nM.
`CC(C)(C)OC(=O)N1CCC(CC#N)(n2cc(C(N)=O)c(Nc3ccc(C#N)cc3)n2)CC1` [Example 9-5, tert-butyl 4-{4-carbamoyl-3-[(4-cyanophenyl)amino]-1H-pyrazol-1-yl}-4-(cyanomethyl)piperidine-1-carboxylate] was tested, and the IC50 (JAK1) was 0.2 nM and the IC50 (JAK2) was 6 nM.
`COc1ccc(NC(=O)N2CC(CC#N)(n3cc(C(N)=O)c(Nc4ccccc4)n3)C2)c(C)c1` [Example 38-36, 1-{3-(cyanomethyl)-1-[(4-methoxy-2-methylphenyl)carbamoyl]azetidin-3-yl}-3-(phenylamino)-1H-pyrazole-4-carboxamide] gave an IC50 (JAK1) of 15 nM and an IC50 (JAK2) of 233 nM.
Work on `N#CC[C@]1(n2cc(C(N)=O)c(Nc3ccccc3)n2)C[C@@H](C#N)C1` [Example 2-21, 1-((1s,3s)-3-cyano-1-(cyanomethyl)cyclobutyl)-3-(phenylamino)-1H-pyrazole-4-carboxamide] yielded an IC50 (JAK1) of 31 nM and an IC50 (JAK2) of 405 nM.
`N#CCC1(n2cc(C(N)=O)c(Nc3ccccc3)n2)CN(C(=O)OCc2ccccc2)C1` [Example 30-53, benzyl 3-[4-carbamoyl-3-(phenylamino)1H-pyrazol-1-yl]-3-(cyanomethyl)azetidine-1-carboxylate] showed an IC50 (JAK1) of 11 nM and an IC50 (JAK2) of 262 nM.
With `N#CCC1(n2cc(C(N)=O)c(Nc3ccccc3)n2)CCN(CC#Cc2ccccc2)CC1` [Example 21-25, 1-[4-(cyanomethyl)-1-(3-phenylprop-2-yn-1-yl)piperidin-4-yl]-3-(phenylamino)-1H-pyrazole-4-carboxamide] the IC50 (JAK1) was 83 nM and the IC50 (JAK2) was 747 nM.
`CC(C)(C)OC(=O)N1CCC(CC#N)(n2cc(C(N)=O)c(Nc3ccc(C#N)nc3)n2)CC1` [Example 9-12, tert-butyl 4-{4-carbamoyl-3-[(6-cyanopyridin-3-yl)amino]-1H-pyrazol-1-yl}-4-(cyanomethyl)piperidine-1-carboxylate] showed an IC50 (JAK1) of 0.5 nM and an IC50 (JAK2) of 6 nM.
In the case of `CC(C)(C)CC(C)(C)NC(=O)N1CC(CC#N)(n2cc(C(N)=O)c(Nc3ccccc3)n2)C1` [Example 38-29, 1-{3-(cyanomethyl)-1-[(1,1,3,3-tetramethylbutyl)carbamoyl]azetidin-3-yl}-3-(phenylamino)-1H-pyrazole-4-carboxamide], the IC50 (JAK1) is reported as 185 nM and the IC50 (JAK2) is reported as 1480 nM.
In the case of `COCC(=O)N1CCC(CC#N)(n2cc(C(N)=O)c(Nc3ccccc3)n2)CC1` [Example 34-2, 1-[4-(cyanomethyl)-1-(methoxyacetyl)piperidin-4-yl]-3-(phenylamino)-1H-pyrazole-4-carboxamide], the IC50 (JAK1) is reported as 5 nM and the IC50 (JAK2) is reported as 93 nM.
`N#CCC1(n2cc(C(N)=O)c(Nc3ccc(F)cc3)n2)CCN(c2ccncc2)CC1` [Example 3-46, 1-[4-(cyanomethyl)-1-pyridin-4-ylpiperidin-4-yl]-3-[(4-fluorophenyl)amino]-1H-pyrazole-4-carboxamide] gave an IC50 (JAK1) of 3 nM and an IC50 (JAK2) of 78 nM.
Compound `N#CCC1(n2cc(C(N)=O)c(Nc3ccccc3)n2)CCN(C(=O)C2CCCO2)CC1` (stereo not drawn) [Example 34-6, 1-[4-(cyanomethyl)-1-(tetrahydrofuran-2-ylcarbonyl)piperidin-4-yl]-3-(phenylamino)-1H-pyrazole-4-carboxamide] has an IC50 (JAK1) of 5 nM and an IC50 (JAK2) of 107 nM.
With `Cn1cc(-c2cccc(Nc3nn(C4(CC#N)CCN(C(=O)OCC(F)(F)F)CC4)cc3C(N)=O)c2)cn1` [Example 10-5, 2,2,2-trifluoroethyl 4-(4-carbamoyl-3-(3-(1-methyl-1H-pyrazol-4-yl)phenylamino)-1H-pyrazol-1-yl)-4-(cyanomethyl)piperidine-1-carboxylate] the IC50 (JAK1) was 0.2 nM and the IC50 (JAK2) was 21 nM.
`N#CCC1(n2cc(C(N)=O)c(Nc3ccnc(F)c3)n2)CCN(C(=O)CC2CCCO2)CC1` (stereo not drawn) [Example 34-39, 1-[4-(cyanomethyl)-1-(tetrahydrofuran-2-ylacetyl)piperidin-4-yl]-3-[(2-fluoropyridin-4-yl)amino]-1H-pyrazole-4-carboxamide] was tested, and the IC50 (JAK1) was 0.9 nM and the IC50 (JAK2) was 42 nM.
With `N#CCC1(n2cc(C(N)=O)c(Nc3ccnc(F)c3)n2)CCC(Nc2ccccc2Cl)CC1` (stereo not drawn) [Example 40-11, Cis or trans 1-{4-[(2-chlorophenyl)amino]-1-(cyanomethyl)cyclohexyl}-3-[(2-fluoropyridin-4-yl)amino]-1H-pyrazole-4-carboxamide] the IC50 (JAK1) was 0.2 nM and the IC50 (JAK2) was 7 nM.
